Laboratory results taken from patent US7125990B2, “Imidazolyl derivatives as corticotropin releasing factor inhibitors” (Bristol-Myers Squibb COmpany, priority 2001, dated 2006).

These compounds were tested against T1, CRF1 receptors (Homo sapiens, UniProt P34998) (assay: CRF1 receptor radioligand binding assay ([125I]-oCRF competition, IMR-32 cell membranes)). Conditions: not given.
T1 construct: endogenous in cells; host or cells: IMR-32 cells, transformed with 2.5 µM 5'-bromo-2'-deoxyuridine for 10 days; membrane preparation
T1 sequence (P34998 24-415): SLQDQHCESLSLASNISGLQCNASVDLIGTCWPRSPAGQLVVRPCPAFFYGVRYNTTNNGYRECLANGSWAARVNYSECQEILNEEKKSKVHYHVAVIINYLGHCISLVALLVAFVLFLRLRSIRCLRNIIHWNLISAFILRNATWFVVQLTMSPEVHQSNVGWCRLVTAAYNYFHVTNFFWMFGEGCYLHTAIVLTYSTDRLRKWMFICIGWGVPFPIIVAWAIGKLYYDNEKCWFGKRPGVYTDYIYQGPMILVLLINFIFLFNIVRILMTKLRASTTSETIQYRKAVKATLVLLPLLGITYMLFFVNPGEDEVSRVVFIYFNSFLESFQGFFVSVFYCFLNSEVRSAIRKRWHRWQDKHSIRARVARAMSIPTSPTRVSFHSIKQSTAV
Method in brief: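 Buffer: Tris pH 7.2 with MgCl2, BSA, Triton X-100, aprotinin, leupeptin; reaction stopped with ice-cold wash and filtered. Nonspecific binding set with 10 μM oCRF.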

| Compound | Ki [µM] |
| --- | --- |
| Cc1cc(C)c(-n2c3ccccc3n3c(CN(CC4CC4)CC(F)(F)C(F)(F)F)c(C(F)(F)F)nc23)c(C)c1 [Example 155, Cyclopropylmethyl-(2,2,3,3,3-pentafluoro-propyl)-[2-trifluoromethyl-8-(2,4,6-trimethyl-phenyl)-8H-1,3a,8-triaza-cyclopenta[α]inden-3-ylmethyl]-amine] | < 0.1 |

Same assay, conditions: IMR-32 cell membranes, [125I]-oCRF 100 pM; read-out: Ki (CRF-1R)

| Ki [µM] | Compound |
| --- | --- |
| < 1 | CCCN(CCC)Cc1c(C(F)(F)F)nc2n1CCCN2c1c(C)cc(C)cc1Cl [Example 109, [8-(2-Chloro-4,6-dimethyl-phenyl)-2-trifluoromethyl-5,6,7,8-tetrahydro-imidazo[1,2-a]pyrimidin-3-ylmethyl]-dipropyl-amine] |
| < 0.1 | CCc1nc2n(c1C(=O)N(CC1CC1)CC(F)(F)C(F)(F)F)CCN2c1c(C)cc(C)cc1C [Example 7, 2-Ethyl-7-(2,4,6-trimethyl-phenyl)-6,7-dihydro-5H-imidazo[1,2-a]imidazole-3-carboxylic acid cyclopropylmethyl-(3,3,3,2,2-pentafluoro-propyl)-amide] |
| < 1 | Cc1cc(C)c(-n2c3ncccc3n3c(CN(CCC4CC4)CCC(F)(F)F)c(C(F)(F)F)nc23)c(C)c1 [Example 225, (2-Cyclopropyl-ethyl)-[2-trifluoromethyl-8-(2,4,6-trimethyl-phenyl)-8H-1,3a,7,8-tetraaza-cyclopenta[α]inden-3-ylmethyl]-(3,3,3-trifluoro-propyl)-amine] |
| < 1 | CCCN(CCC1CC1)Cc1c(C(F)(F)F)nc2n(-c3c(C)cc(C)cc3C)c3ncccc3n12 [Example 230, (2-Cyclopropyl-ethyl)-propyl-[2-trifluoromethyl-8-(2,4,6-trimethyl-phenyl)-8H-1,3a,7,8-tetraaza-cyclopenta[α]inden-3-ylmethyl]-amine] |
| < 1 | Cc1cc(C)c(-n2c(Cl)cn3c(CN4CCSCC4)c(C(F)(F)F)nc23)c(C)c1 [Example 306, 2-Chloro-5-thiomorpholin-4-ylmethyl-6-trifluoromethyl-1-(2,4,6-trimethyl-phenyl)-1H-imidazo[1,2-a]imidazole] |
| < 1 | CCc1nc2n(-c3c(C)cc(C)cc3C)c(Cl)cn2c1C(=O)N(CC)CC [Example 293, 6-Chloro-2-ethyl-7-(2,4,6-trimethylphenyl)-7H-imidazo[1,2-a]imidazole-3-carboxylic acid N,N-diethylamide] |
| < 1 | Cc1cc(C)c(N2CCCn3c2nc(C(F)(F)F)c3CN2CCOCC2)c(Cl)c1 [Example 97, 8-(2-Chloro-4,6-dimethyl-phenyl)-3-morpholin-4-ylmethyl-2-trifluoromethyl-5,6,7,8-tetrahydro-imidazo[1,2-a]pyrimidine] |
| < 1 | CCCN(Cc1c(C(F)(F)F)nc2n1CCCN2c1c(C)cc(C)cc1Cl)CC1CCC1 [Example 111, [8-(2-Chloro-4,6-dimethyl-phenyl)-2-trifluoromethyl-5,6,7,8-tetrahydro-imidazo[1,2-a]pyrimidin-3-ylmethyl]-cyclobutylmethyl-propyl-amine] |

Continued, compound first:

| Compound | Ki [µM] |
| --- | --- |
| Cc1cc(C)c(N2CCCn3c2nc(C(F)(F)F)c3CN2CCSCC2)c(Cl)c1 [Example 98, 8-(2-Chloro-4,6-dimethyl-phenyl)-3-thiomorpholin-4-ylmethyl-2-trifluoromethyl-5,6,7,8-tetrahydro-imidazo[1,2-a]pyrimidine] | < 1 |
| Cc1cc(C)c(N2CCCn3c2nc(C(F)(F)F)c3CN(CCC(F)(F)F)Cc2cccc(F)c2)c(Cl)c1 [Example 133, [8-(2-Chloro-4,6-dimethyl-phenyl)-2-trifluoromethyl-5,6,7,8-tetrahydro-imidazo[1,2-a]pyrimidin-3-ylmethyl]-(3-fluoro-benzyl)-(3,3,3-trifluoro-propyl)-amine] | < 1 |
| CCCN(CCC1CC1)Cc1c(C(F)(F)F)nc2n(-c3c(C)cc(C)cc3C)c3ccccc3n12 [Example 164, (2-Cyclopropyl-ethyl)-propyl-[2-trifluoromethyl-8-(2,4,6-trimethyl-phenyl)-8H-1,3a,8-triaza-cyclopenta[α]inden-3-ylmethyl]-amine] | < 1 |
| FC(F)(F)c1nc2n(-c3ccc(Cl)cc3Cl)c3ccccc3n2c1CN(CC1CC1)CC(F)(F)C(F)(F)F [Example 183, Cyclopropylmethyl-[8-(2,4-dichloro-phenyl)-2-trifluoromethyl-8H-1,3a,8-triaza-cyclopenta[α]inden-3-ylmethyl]-(2,2,3,3,3-pentafluoro-propyl)-amine] | < 10 |
| CCCN(Cc1c(C(F)(F)F)nc2n(-c3ccc(C(C)C)cc3Br)c3ccccc3n12)CC(F)(F)F [Example 200, [8-(2-Bromo-4-isopropyl-phenyl)-2-trifluoromethyl-8H-1,3a,8-triaza-cyclopenta[α]inden-3-ylmethyl]-propyl-(2,2,2-trifluoro-ethyl)-amine] | < 10 |
| CCCN(Cc1c(C(F)(F)F)nc2n(-c3c(C)cc(C)cc3C)c3ncccc3n12)CC1CCC1 [Example 215, Cyclobutylmethyl-propyl-[2-trifluoromethyl-8-(2,4,6-trimethyl-phenyl)-8H-1,3a,7,8-tetraaza-cyclopenta[α]inden-3-ylmethyl]-amine] | < 0.1 |
| Cc1cc(C)c(-n2c(Cl)cn3c(CN(CCC4CC4)CC(F)(F)F)c(C(F)(F)F)nc23)c(C)c1 [Example 331, [6-Chloro-2-trifluoromethyl-7-(2,4,6-trimethyl-phenyl)-7H-imidazo[1,2-a]imidazol-3-ylmethyl]-(2-cyclopropyl-ethyl)-(2,2,2-trifluoro-ethyl)-amine] | < 0.01 |
| CCCN(Cc1ccc(Cl)cc1)Cc1c(C(F)(F)F)nc2n1CCCN2c1c(C)cc(C)cc1C [Example 94, (4-Chloro-benzyl)-propyl-[2-trifluoromethyl-8-(2,4,6-trimethyl-phenyl)-5,6,7,8-tetrahydro-imidazo[1,2-a]pyrimidin-3-ylmethyl]-amine] | < 1 |
| CCCN(CCC)C(=O)c1c(CC)nc2n(-c3ccc(Cl)cc3Cl)c(Cl)cn12 [Example 287, 6-Chloro-2-ethyl-7-(2,4-dichlorophenyl)-7H-imidazo[1,2-a]imidazole-3-carboxylic acid N,N-dipropylamide] | < 0.01 |
| CCN(CCc1ccccc1)Cc1c(C(F)(F)F)nc2n(-c3c(C)cc(C)cc3C)c3ccccc3n12 [Example 174, Ethyl-phenethyl-[2-trifluoromethyl-8-(2,4,6-trimethyl-phenyl)-8H-1,3a,8-triaza-cyclopenta[α]inden-3-ylmethyl]-amine] | < 10 |
| CCc1nc2n(-c3ccc(Cl)cc3Cl)c(Cl)cn2c1CN(CC1CC1)CC(F)(F)F [Example 289, 3-[(N-Cyclopropylmethyl-N-(2,2,2-trifluoroethyl)amino)methyl]-6-chloro-2-ethyl-7-(2,4-diclorophenyl)-7H-imidazo[1,2-a]imidazole] | < 0.1 |
| CCc1nc2n(-c3c(C)cc(C)cc3C)c(Cl)cn2c1C(=O)N(CC1CC1)CC(F)(F)F [Example 296, 6-Chloro-2-ethyl-7-(2,4,6-trimethylphenyl)-7H-imidazo[1,2-a]imidazole-3-carboxylic acid N-cyclopropylmethyl-N-(2,2,2-trifluoroethyl)amide] | < 0.01 |
| CCN(Cc1c(C(F)(F)F)nc2n1CCCN2c1c(C)cc(C)cc1C)CC1CC1 [Example 75, Cyclopropylmethyl-ethyl-[2-trifluoromethyl-8-(2,4,6-trimethyl-phenyl)-5,6,7,8-tetrahydro-imidazo[1,2-a]pyrimidin-3-ylmethyl]-amine] | < 0.1 |
